From patent US9969755B2, “Photodynamic therapy photosensitizers” (The Royal Institution for the Advancement of …, priority 2016, dated 2018)

Tests used:
[1] = Time-resolved fluorescence (fluorescence lifetime, TCSPC); type: physicochemical; conditions: for increase in kdec upon halogen substitution: 4 vs 1, 6 vs 2, 3 vs 1, 5 vs 2; for kdec (fluorescence decay rate constant) / knr (non-radiative decay rate constant, (1−φf)×kdec) / krad (radiative rate constant, φf×kdec): acetonitrile, room temperature
Method: Fluorescence lifetime measurements were carried out using a Picoquant Fluotime 200 time correlated single photon counting (TCSPC) setup employing an LDH-P-C-470 picosecond diode laser (Picoquant) with an excitation wavelength at 466 nm as the excitation source. The laser was controlled by a PDL 800 B picosecond laser driver from Picoquant. ^1HNMR spectra were recorded on a Bruker AV 400 instrument at 400 MHz. ^13CNMR spectra were recorder on a Varian VNMRS 500 instrument at 125 MHz. ESI mass spectra were measured on a Bruker maXis impact. Laser Flash Photolysis (LFP) experiments were carried out in a commercially available Luzchem 212 LFP setup provided with a Tektronix TDS 2000 digitizer for signal capture. A Nd:Yag laser (Continuum model Surelite I-10 using a second harmonic generators, model number SL-SHG-T1) was used for excitation at a wavelength of 532 nm. Phosphorescence experiments were recorded using a Cary Eclipse Fluorescence Spectrophotometer. Singlet Oxygen phosphorescence was recorded with a Hamamatsu NIR detector (peltier cooled at −62.8° C. operating at 800 V, coupled to a grating monochromator) upon excitation with a 532 nm Nd:YAG laser. A customized Luzchem Research LFP-111 system was employed to collect and process the data. The steady-state fluorescence spectra were recorded between 500-800 nm (depending on each compound) upon exciting at the wavelength of the absorbance maxima. The excitation and emission slits were tuned according to the fluorescence quantum yield of each BODIPY (i.e. for compound 7 excitation slits were 5 nm and for compound 4 we used 2 nm). Fluorescence was recorded every 1 nm using 0.1 s integration time. For the Fluorescence lifetime measurements, the excitation rate was 10 MHz, and the detection frequency was less than 100 kHz. Photons were collected at the magic angle. The fluorescence decay traces were fit using FluoFit (Picoquant) software. For steady-state and time-resolved fluorescence measurements a quartz cuvette with a 10 mm path length was used and all the solutions were prepared in air equilibrated acetonitrile.

[2] = Intermolecular quenching of ^1O2 phosphorescence by chromanol rings; type: physicochemical; conditions: ^1O2 generated upon irradiation of compound 5, air equilibrated acetonitrile
From the text: To test whether 7 is equally efficient at deactivating ^1O2 as α-tocopherol, we generated ^1O2 upon irradiation of compound 5 and monitored the ^1O2 phosphorescence lifetime in the presence of increasing amounts of either 7 or PMHC (an α-tocopherol analogue lacking the phytyl tail).

[3] = Activation of compounds 7 and 8 with dicumyl peroxide (cumyloxyl radicals); type: physicochemical; conditions: 9 with respect to 7; reaction with cumyloxyl radicals/ROS, 1 equivalent sacrificial PMHC
Method: Compounds 7 and 8 were oxidized/activated in air equilibrated acetonitrile solution upon photolysis of a 100 μM dicumyl peroxide. Irradiation was performed within a fluorimeter to generate ROS upon exciting with ultraviolet light at 263 nm (2.4 mW/cm^2). The fluorescence intensity at the emission maxima of the probes was monitored over time.
Activation of the dormant photosensitizer 7 or 8 (deactivation of PeT) following their reaction with ROS was subsequently tested in the presence of alkoxyl radicals. These ROS were generated at a constant rate upon photolysis at 263 nm of an air equilibrated 100 μM dicumyl peroxide solution in acetonitrile. We followed over time the increase in fluorescence intensity (drop in PeT) to monitor the extent of activation, see FIG. 16. Activation was complete once the intensity reached a plateau.^28,45 At this point, the trap segment in 7 and 8 reacted to completion with alkoxyl radicals to generate 9 and 10, respectively. […] Deactivation of PeT in the singlet excited state in turn manifested in the ca. 7-fold and 2-fold emission enhancements recorded for 9 vs 7, and 10 vs 8, respectively (FIG. 16).

[4] = Autocatalytic activation of compound 7 (monitoring ^1O2 phosphorescence); type: physicochemical
Method: ^1O2 phosphorescence (1270 nm) was monitored with a Hamamatsu NIR detector after different irradiation periods with a Nd:YAG laser operating at 10 Hz. The energy of each laser pulse was 10 mJ exciting at 532 nm. Using the same procedure as described above (Determination of ^1O2 Quantum Yield), a total of 3 laser shots were applied to acquire a trace at different time intervals following the continuous irradiation by a second Nd:YAG laser setup. Laser excitation was performed at 10 Hz, providing one laser output for every discharge of the flashlamp. The energy of each laser pulse was 10 mJ. To prepare the samples with PMHC, we first added to the solvent (acetonitrile, air equilibrated) the desired amount of PMHC from a stock solution. Then, compound 7 was dissolved until reaching Abs=0.3 ([7]=5.8 μM). For the samples containing compound 4, we first dissolved 4 in a stock solution of acetonitrile containing 0.12 μM of PMHC and then the desired volume of this solution was added to the solution containing 7 and same concentration of the antioxidant (0.12 μM of PMHC).

[5] = Autocatalytic activation of compound 7 (monitoring fluorescence); type: physicochemical
Method: The increase in the fluorescence emission due to autocatalytic activation of compound 7 was followed by continuous irradiation at 532 nm and 1.6 mW/cm^2 in air equilibrated acetonitrile using a PTI QuantaMaster spectrofluorimeter. The emission at 557 nm was measured as a function of the irradiation time. Samples were prepared as described above (see Autocatalytic Activation of Compound 7 (Monitoring ^1O2 Phosphorescence)).

[6] = tested on: clinical biofilm-producing methicillin-resistant Staphylococcus aureus (MRSA); assay: Photodynamic inactivation of MRSA with ciprofloxacin as stressor; type: cell-based
From the text: The strain was a clinical biofilm-producing methicillin-resistant Staphylococcus aureus (MRSA). […] Samples “without exposure to light” were kept wrapped with aluminum foil. Samples “with exposure to light” were irradiated with a LED panel having the following characteristics: 1.6 mW/cm^2 power output with a maxima (centered) at 520 nm and a full width at half maximum (FWHM) of 31 nm. The LED panel consisted of 5 lamps and was placed 10 cm from the sample.

SMILES	increase in kdec upon halogen substitution [1]	kdec (fluorescence decay rate constant) [1]	knr (non-radiative decay rate constant, (1−φf)×kdec) [1]	krad (radiative rate constant, φf×kdec) [1]	further results
CC(=O)OCC1=C2C(C)=C(Br)C(C)=[N+]2[B-](F)(F)n2c(C)c(Br)c(C)c21 [Compound 6, 8-Acetoxymethyl-2,6-dibromo-1,3,5,7-tetramethyl Pyrromethene Fluoroborate]	4.5 fold	66.7 ± 0.3 × 10^7 s^−1	57.4 ± 0.2 × 10^7 s^−1	9.3 ± 0.1 × 10^7 s^−1	–
CC(=O)OCC1=C2C(C)=C(I)C(C)=[N+]2[B-](F)(F)n2c(C)c(I)c(C)c21 [Compound 5, 8-Acetoxymethyl-2,6-diiodo-1,3,5,7-tetramethyl Pyrromethene Fluoroborate]	~42 fold	625.0 ± 0.7 × 10^7 s^−1	582.0 ± 0.7 × 10^7 s^−1	12.5 ± 0.2 × 10^7 s^−1	–
CC1=C(Br)C(C)=[N+]2C1=C(C)c1c(C)c(Br)c(C)n1[B-]2(F)F [Compound 4, 2,6-dibromo-1,3,5,7,8-pentamethyl-pyrromethene fluoroborate]	3.1 fold	55.3 ± 0.2 × 10^7 s^−1	44.2 ± 0.2 × 10^7 s^−1	11.0 ± 0.2 × 10^7 s^−1	–
CC1=C(Br)C(C)=[N+]2C1=C(CC1(C)CCc3c(C)c(O)c(C)c(C)c3O1)c1c(C)c(Br)c(C)n1[B-]2(F)F (centres unmarked) [Compound 7, 8-((6-Hydroxy-2,5,7,8-tetramethylchroman-2-yl)-methyl)-2,6-dibromo-1,3,5,7-tetramethyl]	–	–	–	–	singlet oxygen quenching rate constant kq [2]: 2e+08 M⁻¹ s⁻¹; enhancement in φΔ^D (^1O2 production) on activation [3]: ~40 fold; φΔ ([4]; 250 μM PMHC added, before prolonged irradiation): undetectable; ^1O2 phosphorescence lifetime ([4]; 250 μM PMHC added, within the instrument response): ~3 μs; increase in φΔ after prolonged irradiation ([4]; 250 μM PMHC, 8 hs, ˜300,000 laser shots, 10 mJ/pulse): ca. 25 fold; fraction of photoexcited 7 undergoing activation through reaction with its own singlet oxygen ([4]; assuming geminate quenching 100% effective, 5-3% chemical): smaller than 2×10^−4; fraction of photoexcited 7 effectively sensitizing singlet oxygen ([4]; assuming keT˜25×kISC and k′eT˜10×kq[O2]): < 4×10^−3; increase in φΔ over irradiation time ([4]; direct 532 nm laser excitation, air equilibrated acetonitrile, no PMHC): ca. 6 fold; fraction of 7 pre-oxidized during sample preparation [5]: less than 5%; Fluorescence intensity enhancements ([5]; 0.12 μM sacrificial PMHC, continuous irradiation at 532 nm): ~30 fold; k, apparent second order rate constant for autocatalytic activation ([5]; fit to equation 9, different conditions): ~133 M⁻¹ s⁻¹; colony forming units upon prolonged illumination, single agent ([6]; light 0 to 60 minutes, 1.6 mW/cm^2, 520 nm, ciprofloxacin 1 microgram per milliliter only or Br2B-PMHC 10 micromolar only): no observed reduction in colony forming units; colony forming units upon illumination in the presence of ciprofloxacin ([6]; light, 1 microgram per milliliter ciprofloxacin and 5 or 10 micromolar Br2B-PMHC): clear reduction in colony forming units
CC1=C(I)C(C)=[N+]2C1=C(C)c1c(C)c(I)c(C)n1[B-]2(F)F [Compound 3, 2,6-diiodo-1,3,5,7,8-pentamethyl-pyrromethene fluoroborate]	ca. 27 fold	476.2 ± 0.7 × 10^7 s^−1	463.0 ± 0.7 × 10^7 s^−1	13.1 ± 0.2 × 10^7 s^−1	–
